Non-standard residues stand in square brackets, D forms with d. Residues, ends and D or L forms follow the SMILES beside them. *: point of attachment. Pip = O=C(O)[C@@H]1CCCCN1; Cbz = O=C(OCc1ccccc1)*
Assay: The compound was tested for the inhibitory activity of FK506 binding protein
Set-up: species or system Homo sapiens

Row | IC50 [µM] | Structure (SMILES)
1 | > 100 | COc1cccc(C(=O)CN2CCCC[C@H]2C(=O)N[C@@H](CCc2ccccc2)C(=O)OC(C)C)c1
2 | 65 | CC(C)[C@H](NC(=O)[C@H](Cc1ccccc1)NC(=O)[C@@H]1CCCCN1CC(=O)c1ccc2ccccc2c1)C(=O)N[C@@H](Cc1ccccc1)C(=O)N[C@H](C)c1ccccc1
3 | 60 | C[C@@H](/C=C/c1ccc(C(=O)CN2CCCC2C(=O)NC(Cc2ccccc2)C(=O)OC(C)(C)C)s1)CO[Si](C)(C)C(C)(C)C (stereo not given in full)
4 | > 100 | CC(C)(C)OC(=O)N[C@@H](CC1CCCCC1)C(=O)CN1CCCC1C(=O)NC(Cc1ccccc1)C(=O)OC(C)(C)C (stereo not given in full)
5 | 13 | CC(C)[C@H](NC(=O)[C@H](Cc1ccccc1)NC(=O)[C@@H]1CCCCN1CC(=O)c1ccc2ccccc2c1)C(=O)N[C@@H](Cc1ccccc1)C(=O)OC(C)(C)C
6 | 91 | COc1cccc(C(=O)CN2CCCC[C@H]2C(=O)N[C@@H](CC2CCCCC2)C(=O)OC(C)(C)C)c1
7 | 23 | COc1cccc(C(=O)CN2CCCC[C@H]2C(=O)N[C@H](C(=O)OC(C)(C)C)c2cccs2)c1
8 | 0.3 | COC(=O)[C@H](Cc1ccccc1)NC(=O)[C@@H](NC(=O)[C@H](Cc1ccccc1)NC(=O)[C@@H]1CCCCN1CC(=O)c1ccc2ccccc2c1)C(C)C
9 | 81 | COc1cccc(C(=O)CN2CCCC[C@H]2C(=O)N[C@H](Cc2ccccc2)C(=O)OC(C)(C)C)c1
10 | 12 | C=CCCC(NC(=O)[C@H](Cc1ccccc1)NC(=O)[C@@H]1CCCCN1CC(=O)c1cccc(OC)c1)C(=O)OC(C)(C)C (stereo not given in full)
11 | > 100 | COc1cccc(C(=O)CN2CCCC[C@H]2C(=O)N[C@@H](CCC2CCCCC2)C(=O)OC(C)C)c1
12 | 8 | CCC(C)[C@H](NC(=O)[C@@H]1CCCCN1CC(=O)c1cccc(OC)c1)C(=O)OC(C)(C)C (stereo not given in full)
13 | 42 | COc1cccc(C(=O)CN2CCCC[C@H]2C(=O)N[C@@H](Cc2ccccc2)C(=O)N[C@H](/C=C/C2CCCC(=O)O2)C(C)C)c1 (stereo not given in full)
14 | 12 | COc1cccc(C(=O)CN2CCCC2C(=O)NC(Cc2ccccc2)C(=O)OC(C)(C)C)c1 (stereo not given)
15 | 1 | COc1cccc(C(=O)CN2CCCC[C@H]2C(=O)N[C@@H](Cc2ccccc2)C(=O)N[C@H](/C=C/COC(=O)C(F)(F)F)C(C)C)c1
16 | 120 | C[C@@H](/C=C/c1ccc(C(=O)C(=O)N2CCCC2C(=O)NC(Cc2ccccc2)C(=O)OC(C)(C)C)s1)CO (stereo not given in full)
17 | 59 | COc1cccc(C(=O)CN2CCCC[C@H]2C(=O)N[C@@H](Cc2ccccc2)C(=O)N[C@H](C(=O)N[C@@H](Cc2ccccc2)C(=O)N[C@@H](C)c2ccccc2)C(C)C)c1
18 | 2 | COc1cccc(C(=O)CN2CCCC[C@H]2C(=O)N[C@@H](Cc2ccccc2)C(=O)N[C@H](/C=C/I)C(C)C)c1
19 | 40 | COc1cccc(C(=O)CN2CCCC[C@H]2C(=O)N[C@@H](Cc2ccccc2)C(=O)NC(Cc2ccccc2)C(=O)OC(C)(C)C)c1 (stereo not given in full)
20 | 6 | CCC(C)C(NC(=O)[C@H](Cc1ccccc1)NC(=O)[C@@H]1CCCCN1CC(=O)c1cccc(OC)c1)C(=O)OC(C)(C)C (stereo not given in full)
21 | 85 | COc1cccc(C(=O)CN2CCCC[C@H]2C(=O)N[C@@H](Cc2ccccc2)C(=O)N[C@H](C(=O)N[C@@H](Cc2ccccc2)C(=O)N[C@H](C)c2ccccc2)C(C)C)c1
22 | 3 | COc1cccc(C(=O)CN2CCCC[C@H]2C(=O)N[C@@H](Cc2ccccc2)C(=O)NC(C(=O)OC(C)(C)C)C(C)C)c1 (stereo not given in full)
23 | 62 | COc1cccc(C(=O)CN2CCCC[C@H]2C(=O)N[C@@H](Cc2ccccc2)C(=O)N[C@H](/C=C/COC(=O)c2ccccc2)C(C)C)c1
24 | 9 | C[C@@H](/C=C/c1ccc(C(=O)C(=O)N2CCCC[C@H]2C(=O)NC(Cc2ccccc2)C(=O)OC(C)(C)C)s1)CO (stereo not given in full)
25 | > 100 | COC1CCCC(C(=O)CN2CCCC2C(=O)NC(Cc2ccccc2)C(=O)OC(C)(C)C)C1 (stereo not given)
26 | 27 | COc1cccc(C(=O)CN2CCCC[C@H]2C(=O)N[C@@H](Cc2ccc([N+](=O)[O-])cc2)C(=O)OC(C)(C)C)c1
27 | 23 | COc1cccc(C(=O)CN2CCCC[C@H]2C(=O)N[C@@H](Cc2ccccc2)C(=O)N[C@H](C(=O)N[C@@H](Cc2ccccc2)C(=O)O[C@H](C)c2ccccc2)C(C)C)c1
28 | 56 | COc1cccc(C(=O)CN2CCCC[C@H]2C(=O)N[C@@H](Cc2ccccc2)C(=O)N[C@H](C(=O)N[C@@H](Cc2ccccc2)C(=O)O[C@@H](C)c2ccccc2)C(C)C)c1

Row | IC50 [µM] | Structure (SMILES)
29 | 35 | CC(C)(C)OC(=O)C(CC1CCCCC1)NC(=O)[C@H](Cc1ccccc1)NC(=O)[C@@H]1CCCCN1CC(=O)c1ccc2ccccc2c1 (stereo not given in full)
30 | 20 | COc1cccc(C(=O)CN2CCCC[C@H]2C(=O)N[C@@H](Cc2ccccc2)C(=O)N[C@H](C(=O)N[C@@H](Cc2ccccc2)C(=O)OC(C)(C)C)C(C)C)c1
31 | 3 | C=CCOC/C=C/[C@@H](NC(=O)[C@H](Cc1ccccc1)NC(=O)[C@@H]1CCCCN1CC(=O)c1cccc(OC)c1)C(C)C
32 | 75 | CC(C)[C@H](NC(=O)[C@H](Cc1ccccc1)NC(=O)[C@@H]1CCCCN1CC(=O)c1ccc2ccccc2c1)C(=O)N[C@@H](Cc1ccccc1)C(=O)N[C@H](C)c1cccc2ccccc12
33 | > 100 | C[C@@H](/C=C/c1ccc(C(=O)C(=O)N2CCCC2C(=O)OC(C)(C)C)s1)CO[Si](C)(C)C(C)(C)C (stereo not given in full)
34 | > 100 | C[C@@H](/C=C/c1ccc(C(=O)C(=O)N2CCCC2C(=O)NC(Cc2ccccc2)C(=O)OC(C)(C)C)s1)CO[Si](C)(C)C(C)(C)C (stereo not given in full)
35 | 18 | CC(=O)OC/C=C/[C@@H](NC(=O)[C@H](Cc1ccccc1)NC(=O)[C@@H]1CCCCN1CC(=O)c1ccc2ccccc2c1)C(C)C
36 | 2 | COc1cccc(C(=O)CN2CCCC[C@H]2C(=O)N[C@@H](Cc2ccccc2)C(=O)N[C@H](/C=C/COC(C)=O)C(C)C)c1
37 | 22 | COc1cccc(C(=O)CN2CCCC[C@H]2C(=O)N[C@H](C(=O)OC(C)(C)C)c2ccsc2)c1
38 | 10 | COc1cccc(C(=O)CN2CCCC[C@H]2C(=O)N[C@@H](Cc2ccccc2)C(=O)N[C@H](/C=C/[C@@H](C)CC(C)=O)C(C)C)c1
39 | 70 | COc1cccc(C(=O)CN2CCCC[C@H]2C(=O)N[C@@H](Cc2ccccc2)C(=O)NC(CC2CCCCC2)C(=O)OC(C)(C)C)c1 (stereo not given in full)
40 | 35 | CC(C)[C@@H](/C=C/C(=O)N[C@@H](C)c1ccccc1)NC(=O)[C@H](Cc1ccccc1)NC(=O)[C@@H]1CCCCN1CC(=O)c1ccc2ccccc2c1
41 | 11 | COc1cccc(C(=O)CN2CCCC[C@H]2C(=O)N[C@@H](Cc2ccccc2)C(=O)N[C@H](/C=C/C2CCC(=O)C2)C(C)C)c1 (stereo not given in full)
42 | 3 | COc1cccc(C(=O)CN2CCCC[C@H]2C(=O)N[C@@H](Cc2ccccc2)C(=O)NC(CC(C)C)C(=O)OC(C)(C)C)c1 (stereo not given in full)
43 | 40 | COc1cccc(C(=O)CN2CCCC[C@H]2C(=O)N[C@@H](Cc2ccccc2)C(=O)N[C@H](/C=C/C(=O)N[C@@H](C)c2ccccc2)C(C)C)c1
44 | 1 | CC(C)C(NC(=O)[C@H](Cc1ccccc1)NC(=O)[C@@H]1CCCCN1CC(=O)c1ccc2ccccc2c1)C(=O)OC(C)(C)C (stereo not given in full)
45 | 3 | COc1cccc(C(=O)CN2CCCC[C@H]2C(=O)N[C@@H](Cc2ccccc2)C(=O)OC(C)(C)C)c1
46 | > 100 | C[C@@H](/C=C/c1ccc(C(=O)C(=O)N2CCCC2C(=O)OC(C)(C)C)s1)CO (stereo not given in full)
47 | 30 | COc1cccc(C(=O)CN2CCCC[C@H]2C(=O)N[C@@H](Cc2ccccc2)C(=O)N[C@H](C(=O)N[C@@H](Cc2ccccc2)C(=O)N[C@H](C)c2cccc3ccccc23)C(C)C)c1
48 | > 100 | COc1cccc(C(=O)CN2CCCC[C@H]2C(=O)N[C@@H](Cc2ccccc2)C(=O)NC(CCCCNC(=O)OCc2ccccc2)C(=O)OCc2ccccc2)c1 (stereo not given in full)
49 | 14 | COc1cccc(C(=O)CN2CCCC[C@H]2C(=O)N[C@@H](Cc2ccccc2)C(=O)N[C@H](C(=O)Cc2ccccc2)C(C)C)c1
50 | 15 | CCOC(=O)/C=C/[C@@H](NC(=O)[C@H](Cc1ccccc1)NC(=O)[C@@H]1CCCCN1CC(=O)c1cccc(OC)c1)C(C)C
51 | 26 | COC(=O)[C@H](Cc1ccccc1)NC(=O)[C@@H](NC(=O)[C@H](Cc1ccccc1)NC(=O)[C@@H]1CCCCN1CC(=O)c1ccc(-c2ccccc2)cc1)C(C)C
52 | 1 | COC(=O)[C@H](Cc1ccccc1)NC(=O)[C@@H](NC(=O)[C@H](Cc1ccccc1)NC(=O)[C@@H]1CCCCN1CC(=O)c1cccc(OC)c1)C(C)C
53 | 83 | COc1cccc(C(=O)CN2CCCC[C@H]2C(=O)N[C@H](C(=O)OC(C)(C)C)C(C)C)c1
54 | > 100 | COC(=O)[C@H](Cc1ccccc1)NC(=O)[C@@H](NC(=O)[C@H](Cc1ccccc1)NC(=O)[C@@H]1CCCCN1C(=O)OCc1ccccc1)C(C)C (Cbz-[Pip]FVF-OMe)
55 | > 100 | COC(=O)[C@H](Cc1ccccc1)NC(=O)[C@@H](NC(=O)[C@H](Cc1ccccc1)NC(=O)[C@@H]1CCCCN1)C(C)C (H-[Pip]FVF-OMe)
